Reference: patent US9987282B2, “Small molecule inhibitors of influenza A RNA-dependent RNA polymerase” (Nant Holdings IP, LLC, priority 2011, dated 2018)

What was measured:
[1] = tested on: H3N2 serotype A/Aichi/2/68; assay: In vitro viral propagation in MDCK cells, read by hemagglutination assay; type: cell-based, influenza A/Aichi/2/68 (H3N2); conditions: in vitro infection
[2] = tested on: liver-derived HepG2 cells
[3] = tested on: primary renal proximal tubule epithelial cells (RPTEC)
[4] = tested on: cell death-activated reporter construct; assay: Counter screen using a cell death-activated reporter construct (constitutive gene expression); conditions: for observed toxicity or efficacy in antiviral and counterscreen assays: antiviral reporter assay and counterscreen, tested up to 50 uM
[5] = tested on: influenza A/Puerto Rico/8/34; assay: In vivo survival study in infected Balb/C mice; conditions: day 7 post-infection, 2×LD50 challenge
Procedure: In Vivo Survival Studies: Groups of 5 Balb/C mice ([…]) were weighed prior to the start of study and injected intravenously at the base of the tail with formulations containing A0435 at doses of 3.17, 1, or 0 mg/kg in phosphate buffered saline containing 3% w/v mouse serum albumin. Four hours later, these mice were challenged intranasally with 2×LD50 of influenza A/Puerto Rico/8/34 under anesthesia. Identical doses of A0435 were administered 24 and 48 hours after the initial dose administration and animal weights were monitored daily. Surviving animals were defined as those who maintained 70% or more of their starting weight.

influenza A = type: cell-based
[6] = tested on: influenza A/WS/1933 (H1N1); assay: In vitro viral propagation in MDCK cells, read by hemagglutination assay; type: cell-based; conditions: in vitro infection
[7] = tested on: influenza A/Puerto Rico/8/34 (H1N1) virus; assay: In vitro viral propagation in MDCK cells, read by chicken red blood cell hemagglutination assay; type: cell-based; conditions: MDCK cells pre-incubated with compound; supernatants after 18-20 hour incubation
[8] = biological target: influenza A RNA-dependent RNA polymerase (RdRP) (Influenza A virus, UniProt P03428+P03431+P03433)

| SMILES | observed toxicity or efficacy in antiviral and counterscreen assays [4] | further results |
| --- | --- | --- |
| CCc1c(C)nc2cc(-c3ccc(OC)c(OC)c3)nn2c1NCCc1ccccn1 [A0435] | – | inhibition of virus [1]: significantly inhibited; tolerability in cells [2]: well-tolerated; tolerability in cells [3]: well-tolerated; inhibitory impact on the level of constitutive gene expression in the counter-screen assay ([4]; dose titration): no visible inhibitory impact; animals surviving infection ([5]; 1 mg/kg intravenous): 2/5; animals surviving infection ([5]; 3.17 mg/kg intravenous): 3/5; cytopathic effects in infected cells (influenza A): little to no signs of the cytopathic effects; inhibition of virus [6]: significantly inhibited; concentration showing significant antiviral activity (hemagglutination assay) [7]: > 4 µM |
| CCc1c(C)nc2cc(-c3ccc(F)cc3)nn2c1NCCc1ccccn1 [A0436, 6-ethyl-2-(4-fluorophenyl)-5-methyl-N-(2-(pyridin-2-yl)ethyl)pyrazolo[1,5-a]pyrimidin-7-amine] | >10 uM (toxic to both antiviral and counterscreen at 50 uM) | – |
| Cc1ccc(-c2cc3nc4c(c(NCCc5ccccn5)n3n2)CCC4)cc1 [A0437, N-(2-(pyridin-2-yl)ethyl)-2-p-tolyl-6,7-dihydro-5H-cyclopenta[d]pyrazolo[1,5-a]pyrimidin-8-amine] | >50 µM (no observed toxicity or efficacy in either assay tested) | – |
| CCc1c(C)nc2cc(-c3ccc(OC)c(OC)c3)nn2c1NCCc1ccc(OC)c(OC)c1 [A0438, N-(3,4-dimethoxyphenethyl)-2-(3,4-dimethoxyphenyl)-6-ethyl-5-methylpyrazolo[1,5-a]pyrimidin-7-amine] | >10 uM (toxic to both antiviral and counterscreen at 50 uM) | – |
| CCc1c(C)nc2cc(-c3ccc(OC)c(OC)c3)nn2c1NCCc1ccccc1C [A0439] | – | toxicity in the reporter assay [8]: increased toxicity at higher doses due to precipitation; concentration showing significant antiviral activity (hemagglutination assay) [7]: > 7.5 µM |
| CCc1c(C)nc2cc(-c3ccc(OC)c(OC)c3)nn2c1NCCc1ccc(F)cc1 [A0440, 2-(3,4-dimethoxyphenyl)-6-ethyl-N-(4-fluorophenethyl)-5-methylpyrazolo[1,5-a]pyrimidin-7-amine] | >50 µM (no observed toxicity or efficacy in either assay tested) | – |
| Fc1ccc(-c2cc3nc4c(c(NCCc5ccccn5)n3n2)CCCC4)cc1 [A0441, 2-(4-fluorophenyl)-N-(2-(pyridin-2-yl)ethyl)-5,6,7,8-tetrahydropyrazolo[5,1-b]quinazolin-9-amine] | >10 uM (toxic to both antiviral and counterscreen at 50 uM) | – |
| Clc1ccc(-c2cc3nc4c(c(NCCc5ccccn5)n3n2)CCCC4)cc1 [A0442, 2-(4-chlorophenyl)-N-(2-(pyridin-2-yl)ethyl)-5,6,7,8-tetrahydropyrazolo[5,1-b]quinazolin-9-amine] | >10 uM (toxic to both antiviral and counterscreen at 50 uM) | – |
| COc1ccc(-c2cc3nc(C)c(C)c(N4CCCC4)n3n2)cc1OC [A0443, 2-(3,4-dimethoxyphenyl)-5,6-dimethyl-7-(pyrrolidin-1-yl)pyrazolo[1,5-a]pyrimidine] | >50 µM (no observed toxicity or efficacy in either assay tested) | – |
| COc1ccc(-c2cc3nc4c(c(NCCc5cccnc5)n3n2)CCC4)cc1OC [A0444, 2-(3,4-dimethoxyphenyl)-N-(2-(pyridin-3-yl)ethyl)-6,7-dihydro-5H-cyclopenta[d]pyrazolo[1,5-a]pyrimidin-8-amine] | >10 uM (toxic to both antiviral and counterscreen at 50 uM) | – |
| CCc1c(C)nc2cc(-c3cc(C)on3)nn2c1NCCc1ccccn1 [A0445, 6-ethyl-5-methyl-2-(5-methylisoxazol-3-yl)-N-(2-(pyridin-2-yl)ethyl)pyrazolo[1,5-a]pyrimidin-7-amine] | >50 µM (no observed toxicity or efficacy in either assay tested) | – |
| COc1cc(OC)cc(-c2cc3nc(C)cc(NCC(C)c4ccccc4)n3n2)c1 (centres unmarked) [A0525, 2-(3,5-dimethoxyphenyl)-5-methyl-N-(2-phenylpropyl)pyrazolo[1,5-a]pyrimidin-7-amine] | >50 µM (no observed toxicity or efficacy in either assay tested) | – |
| CCc1c(C)nc2cc(-c3ccc(OC)c(OC)c3)nn2c1NCc1cc(OC)ccc1OC [A0526, N-(2,5-dimethoxybenzyl)-2-(3,4-dimethoxyphenyl)-6-ethyl-5-methylpyrazolo[1,5-a]pyrimidin-7-amine] | >50 µM (no observed toxicity or efficacy in either assay tested) | – |
| CCc1c(C)nc2cc(-c3cc(OC)cc(OC)c3)nn2c1NCCc1ccccc1 [A0527, 2-(3,5-dimethoxyphenyl)-6-ethyl-5-methyl-N-phenethylpyrazolo[1,5-a]pyrimidin-7-amine] | >50 µM (no observed toxicity or efficacy in either assay tested) | – |
| COc1ccc(-c2cc3nc(-c4ccccc4)cc(NCc4ccccc4C)n3n2)cc1OC [A0528, 2-(3,4-dimethoxyphenyl)-N-(2-methylbenzyl)-5-phenylpyrazolo[1,5-a]pyrimidin-7-amine] | >50 µM (no observed toxicity or efficacy in either assay tested) | – |
| COc1ccc(-c2cc3nc4c(c(NCc5ccccc5F)n3n2)CCCC4)cc1 [A0529, N-(2-fluorobenzyl)-2-(4-methoxyphenyl)-5,6,7,8-tetrahydropyrazolo[5,1-b]quinazolin-9-amine] | >50 µM (no observed toxicity or efficacy in either assay tested) | – |
| COc1ccc(-c2cc3nc(C)cc(NCc4ccc5c(c4)OCO5)n3n2)cc1 [A0530, N-(benzo[d][1,3]dioxol-5-ylmethyl)-2-(4-methoxyphenyl)-5-methylpyrazolo[1,5-a]pyrimidin-7-amine] | >50 µM (no observed toxicity or efficacy in either assay tested) | – |
| Cc1cc(NC(CO)C(O)c2ccccc2)n2nc(-c3cccc(F)c3)cc2n1 (centres unmarked) [A0531, 2-(2-(3-fluorophenyl)-5-methylpyrazolo[1,5-a]pyrimidin-7-ylamino)-1-phenylpropane-1,3-diol] | >50 µM (no observed toxicity or efficacy in either assay tested) | – |
| Cc1cc(NCC(O)c2cccc(O)c2)n2nc(-c3cccc(F)c3)cc2n1 (centres unmarked) [A0532, 3-(2-(2-(3-fluorophenyl)-5-methylpyrazolo[1,5-a]pyrimidin-7-ylamino)-1-hydroxyethyl)phenol] | >50 µM (no observed toxicity or efficacy in either assay tested) | – |
| COc1ccc(-c2cc3nccc(NCc4ccccc4OC)n3n2)cc1 [A0547, N-(2-methoxybenzyl)-2-(4-methoxyphenyl)pyrazolo[1,5-a]pyrimidin-7-amine] | >50 µM (no observed toxicity or efficacy in either assay tested) | – |
| COc1ccc(-c2cc3nc(C)cc(NCc4ccccc4)n3n2)cc1 [A0548, N-benzyl-2-(4-methoxyphenyl)-5-methylpyrazolo[1,5-a]pyrimidin-7-amine] | >50 µM (no observed toxicity or efficacy in either assay tested) | – |
| COc1ccc(-c2c(C)nn3c(NCC(C)c4ccccc4)cc(C)nc23)cc1OC (centres unmarked) [A0549, 3-(3,4-dimethoxyphenyl)-2,5-dimethyl-N-(2-phenylpropyl)pyrazolo[1,5-a]pyrimidin-7-amine] | >50 µM (no observed toxicity or efficacy in either assay tested) | – |
| COc1ccc(-c2c(C)nn3c(N4CCc5ccccc5C4)cc(C)nc23)cc1OC [A0550, 2-(3-(3,4-dimethoxyphenyl)-2,5-dimethylpyrazolo[1,5-a]pyrimidin-7-yl)-1,2,3,4-tetrahydroisoquinoline] | >50 µM (no observed toxicity or efficacy in either assay tested) | – |
| COc1ccc(-c2cc3c(=O)[nH]nc(SCc4ccc5c(c4)OCO5)n3n2)cc1OC [A0551, 7-(benzo[d][1,3]dioxol-5-ylmethylthio)-2-(3,4-dimethoxyphenyl)pyrazolo [1,5-d][1,2,4]triazin-4(5H)-one] | >50 µM (no observed toxicity or efficacy in either assay tested) | – |
| CCOc1ccc(-c2cc3c(SCc4cccc(C)c4)nccn3n2)cc1 [A0552, 2-(4-ethoxyphenyl)-4-(3-methylbenzylthio)pyrazolo [1,5-a]pyrazine] | >50 µM (no observed toxicity or efficacy in either assay tested) | – |
| COc1ccc(-c2cc3c(=O)[nH]nc(SCc4ccccc4Cl)n3n2)cc1OC [A0553, 7-(2-chlorobenzylthio)-2-(3,4-dimethoxyphenyl)pyrazolo [1,5-d][1,2,4]triazin-4(5H)-one] | >50 µM (no observed toxicity or efficacy in either assay tested) | – |
